From ChEMBL document CHEMBL2203133 (J Med Chem, 2012)

How the values were obtained:
[1] = Plasma concentration in BALB/c mouse at 10 mg/kg, po at 6 hrs; format: ADME, organism-based; parameters: dose 10 mg/kg, route oral
[2] = Plasma concentration in BALB/c mouse at 10 mg/kg, po at 1 hr; format: ADME, organism-based; parameters: dose 10 mg/kg, route oral
[3] = test system: Plasma; test: Dose normalized plasma concentration in BALB/c mouse at 1 mg/kg, iv at 6 hrs administered as bolus dose; format: ADME, organism-based; parameters: dose 1 mg/kg, route intravenous; conditions: in vivo
[4] = test system: Plasma; test: Dose normalized plasma concentration in BALB/c mouse at 1 mg/kg, iv at 1 hr administered as bolus dose; format: ADME, organism-based; parameters: dose 1 mg/kg, route intravenous; conditions: in vivo
[5] = target: T1, Serine/threonine-protein kinase Chk1 (Homo sapiens, UniProt O14757)
T1 sequence (O14757 whole entry): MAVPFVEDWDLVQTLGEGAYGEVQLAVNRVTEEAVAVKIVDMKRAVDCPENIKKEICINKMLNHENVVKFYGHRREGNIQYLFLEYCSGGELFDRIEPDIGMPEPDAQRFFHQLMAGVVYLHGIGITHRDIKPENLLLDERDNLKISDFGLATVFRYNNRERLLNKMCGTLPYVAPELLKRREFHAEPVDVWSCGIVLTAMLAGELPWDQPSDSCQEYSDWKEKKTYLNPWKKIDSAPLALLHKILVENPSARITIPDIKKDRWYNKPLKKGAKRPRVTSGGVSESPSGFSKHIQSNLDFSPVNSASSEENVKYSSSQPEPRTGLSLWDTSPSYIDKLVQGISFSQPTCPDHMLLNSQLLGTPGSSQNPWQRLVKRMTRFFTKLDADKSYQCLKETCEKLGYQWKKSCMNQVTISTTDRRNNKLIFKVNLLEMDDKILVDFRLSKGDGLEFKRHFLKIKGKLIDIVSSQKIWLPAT

[6] = in vitro; conditions: mouse, liver microsomes

Compound `CNc1cc(Nc2cnc(C#N)c(O[C@@H]3CCN(C)C3)n2)ncc1-c1cnn(C)c1` has a concentration at 6 h [1] of 12 nM, a concentration at 1 h [2] of 193 nM and a Cp/dose [3] of under 20 nM. It also gave a Cp/dose [4] of 320 nM, an IC50 [5] of 4.4 nM and a metabolised at 0.5 h [6] of 17%.
